A value given as a limit tells only on which side of the number the result lay.

One assay concerns the target VEGFR2 (Homo sapiens, UniProt P35968). Nature of the assay: Recombinant kinase ELISA assay, VEGFR2. The class given is biochemical. The conditions noted are these: recombinant human enzyme; ELISA-based assay, poly(Glu,Tyr 4:1) substrate. As to the method: (§1) Full details for the generation of recombinant human KIT intracellular domain and other protein kinases (including Lyn, platelet derived growth factor receptor β, epidermal growth factor receptor, fibroblast growth factor receptor 1, Src, HCK, PYK, FES, Btk, Bmx, c-Ret, c-Fms, Syk, and c-Met) are provided in the Supplemental Methods (see Supporting Information; Methods S1). Experiments on ABL1, Akt1, protein kinase C-α, insulin-like growth factor receptor 1, and Pim1 were carried out by Proqinase (Germany). All other recombinant protein kinases were performed in-house using an enzyme-linked immunoassay; experimental details are provided in the Supplemental Methods (see Supporting Information; Methods S1).
A general note: ELISA stands for enzyme-linked immunosorbent assay.

In assay [1] the target is T1, c-Ret (Homo sapiens, UniProt P07949).
T1 construct: c-Ret (713–1114; BC004257); 6xHN (N); made in house; host or cells: baculovirus, Sf9 insect cells
The assay can be described thus: Recombinant kinase ELISA assay, c-Ret. The class given is biochemical. As to conditions: recombinant human enzyme; ELISA-based assay, poly(Glu,Tyr 4:1) substrate. The procedure: as §1
(§2) The sequences encoding PDGF receptor β (residues 554–1106; GenBank accession no. BC032224), Lyn B (2–583; accession no. BC059394), fibroblast growth factor receptor 1 (572–959; accession no. BC018128), Src (2–536; accession no. BC011566), Btk (2–659; accession no. BC109079), Bmx (2–675; accession no. BC016652), c-Ret (713–1114; accession no. BC004257), c-Fms (538–972; BC047531), Syk (2–612; BC011399), Hck (2-526; accession no. BC014435), Fes (2-822; accession no. BC035357), PYK2 (2-1006; accession no. BC042599) and c-Met (949–1398; accession no. lifeseq3489592) were amplified by PCR from IMAGE cDNA clones purchased from Openbiosystems. […]
T1 sequence (P07949 713-1072 isoform P07949-2): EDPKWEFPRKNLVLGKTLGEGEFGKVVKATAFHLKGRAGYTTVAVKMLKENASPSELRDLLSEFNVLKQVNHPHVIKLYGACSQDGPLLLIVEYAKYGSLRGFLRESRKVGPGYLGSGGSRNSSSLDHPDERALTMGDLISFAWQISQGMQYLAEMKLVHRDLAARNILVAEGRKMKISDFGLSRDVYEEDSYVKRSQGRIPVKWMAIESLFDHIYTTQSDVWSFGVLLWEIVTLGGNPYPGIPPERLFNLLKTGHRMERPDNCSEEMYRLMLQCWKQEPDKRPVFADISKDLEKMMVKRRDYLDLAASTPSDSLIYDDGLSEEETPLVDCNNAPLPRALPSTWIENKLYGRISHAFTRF

The next assay concerns the target T2, Lyn B (Homo sapiens, UniProt P07948).
T2 construct: Lyn B (2–583; BC059394); 6xHN (N); made in house; host or cells: baculovirus, Sf9 insect cells
Nature of the assay: Recombinant kinase ELISA assay, Lyn B. The conditions noted are these: recombinant human enzyme; ELISA-based assay, poly(Glu,Tyr 4:1) substrate. The class given is biochemical. The procedure:
as §1

The target of a further assay is T3, Bmx (Homo sapiens, UniProt P51813).
T3 construct: Bmx (2–675; BC016652); 6xHN (N); made in house; host or cells: baculovirus, Sf9 insect cells
T3 sequence (P51813 2-675): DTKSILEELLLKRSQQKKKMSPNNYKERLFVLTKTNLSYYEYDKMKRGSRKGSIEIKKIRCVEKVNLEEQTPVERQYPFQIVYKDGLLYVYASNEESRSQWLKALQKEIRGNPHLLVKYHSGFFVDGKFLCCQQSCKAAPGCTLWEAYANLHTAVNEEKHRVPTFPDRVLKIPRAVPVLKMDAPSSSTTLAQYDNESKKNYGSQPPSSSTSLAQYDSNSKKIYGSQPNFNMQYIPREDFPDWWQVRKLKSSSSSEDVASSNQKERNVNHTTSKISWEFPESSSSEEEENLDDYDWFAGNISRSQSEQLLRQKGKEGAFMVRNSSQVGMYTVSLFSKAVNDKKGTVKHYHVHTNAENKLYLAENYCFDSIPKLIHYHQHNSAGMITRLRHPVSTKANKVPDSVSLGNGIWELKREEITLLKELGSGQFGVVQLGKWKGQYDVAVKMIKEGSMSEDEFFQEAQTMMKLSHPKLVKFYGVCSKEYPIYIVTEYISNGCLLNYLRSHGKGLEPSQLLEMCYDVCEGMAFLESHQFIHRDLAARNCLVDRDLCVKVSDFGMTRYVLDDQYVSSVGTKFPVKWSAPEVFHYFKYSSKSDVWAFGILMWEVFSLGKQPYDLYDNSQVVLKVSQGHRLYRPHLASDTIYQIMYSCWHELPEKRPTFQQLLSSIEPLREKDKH
The assay can be described thus: Recombinant kinase ELISA assay, Bmx. Type of assay: biochemical. As to conditions: recombinant human enzyme; ELISA-based assay, poly(Glu,Tyr 4:1) substrate. As to the method: as §1, §2

Assay [2] concerns the target T4, c-Ret (Homo sapiens, UniProt P07949).
T4 construct: expressed in transfected cells; host or cells: Ba/F3 (general description; not repeated for this kinase)
The assay can be described thus: Ba/F3 cell proliferation (WST-1), c-Ret. The conditions noted are these: Ba/F3 cells expressing the enzyme, read-out: Cell-based assay IC50, c-Ret. (Formazan colour is commonly taken as a measure of viable cells.)
T4 sequence (P07949 29-1114): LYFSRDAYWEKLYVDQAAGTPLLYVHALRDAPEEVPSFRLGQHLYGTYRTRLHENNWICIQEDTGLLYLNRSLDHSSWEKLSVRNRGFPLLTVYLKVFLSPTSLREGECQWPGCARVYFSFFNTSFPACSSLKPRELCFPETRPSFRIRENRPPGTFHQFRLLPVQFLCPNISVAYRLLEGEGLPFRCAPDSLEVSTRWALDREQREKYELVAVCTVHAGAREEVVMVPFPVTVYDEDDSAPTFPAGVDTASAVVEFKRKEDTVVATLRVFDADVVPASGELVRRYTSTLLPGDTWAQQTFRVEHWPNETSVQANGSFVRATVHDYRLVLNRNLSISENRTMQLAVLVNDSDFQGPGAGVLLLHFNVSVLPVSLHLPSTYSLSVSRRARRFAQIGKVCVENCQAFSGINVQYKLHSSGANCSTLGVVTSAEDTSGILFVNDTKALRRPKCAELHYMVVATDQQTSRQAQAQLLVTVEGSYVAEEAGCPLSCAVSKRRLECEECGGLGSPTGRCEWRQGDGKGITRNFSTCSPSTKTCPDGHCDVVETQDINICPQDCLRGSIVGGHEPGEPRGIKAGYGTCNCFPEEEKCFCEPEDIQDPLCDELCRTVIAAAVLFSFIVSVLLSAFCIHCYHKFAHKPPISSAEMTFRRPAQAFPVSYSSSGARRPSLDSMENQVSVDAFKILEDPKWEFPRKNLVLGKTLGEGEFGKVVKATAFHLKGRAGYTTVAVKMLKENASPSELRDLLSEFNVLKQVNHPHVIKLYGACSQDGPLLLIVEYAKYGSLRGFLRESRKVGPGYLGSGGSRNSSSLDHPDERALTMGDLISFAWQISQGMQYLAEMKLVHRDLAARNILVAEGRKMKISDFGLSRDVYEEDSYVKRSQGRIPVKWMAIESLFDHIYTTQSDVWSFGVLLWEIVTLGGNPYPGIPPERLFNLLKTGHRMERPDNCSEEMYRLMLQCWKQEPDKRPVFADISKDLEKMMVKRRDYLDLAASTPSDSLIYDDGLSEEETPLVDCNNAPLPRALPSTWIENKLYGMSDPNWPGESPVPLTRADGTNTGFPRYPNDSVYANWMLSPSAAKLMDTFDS

The next assay has as its target T5, Jak1 (Homo sapiens, UniProt P23458).
T5 construct: expressed in transfected cells; host or cells: Ba/F3
The assay can be described thus: Ba/F3 cell proliferation (WST-1), Jak1. As to conditions: Ba/F3 cells expressing the enzyme, read-out: Cell-based assay IC50, Jak1.

The test system of assay [3] is human cord-blood-derived mast cells (CBMC). The assay can be described thus: TNF-α release by IgE-anti IgE-activated CBMC (ELISA). Type of assay: cell-based. As to conditions: Mast cell, 4 hours of stimulation. The procedure: (see Supporting Information; Methods S1). […] Assays of β-hexosaminidase release and TNF-α release were made by stimulating the CBMC with 1 µg/ml of goat anti-human IgE (Vector Laboratories) for 30 minutes or 4 hours, respectively. β-hexosaminidase was measured in the supernatant and in the sonicated cell pellets and its net release calculated. For TNF-α determination, the cell-free supernatants were collected by centrifugation and frozen at −80°C until determination of mediator content by the use of a specific ELISA kit according to manufacturer's instructions (Coulter, France). All assays were performed in duplicate and counts were repeated twice for each well.
Human CBMC were produced by long-term culture of CD34+ progenitors purified from normal cord-blood. […] At the beginning of the culture, rhIL-3 (1 ng/ml) (R&D Systems Europe, France) was also added to induce maximal expansion of haematopoietic progenitors. After 3 days the IL-3 was removed and 4 days later cells were transferred to a complete serum-free medium containing rmSCF at 100 ng/ml, which was renewed every 7 days thereafter. After 8 weeks in culture ≥99% of the cells were identified as being mast cells by May-Grünwald-Giemsa staining of cytocentrifuged samples.

The subject of a further assay is HMC-1α155 cells. The assay can be described thus: Mastocytoma cell line proliferation (WST-1), HMC-1α155. The conditions noted are these: Homo sapiens, 48 h; 2 days; KIT juxtamembrane mutation. Type of assay: cell-based. The procedure: (§3) (B) western blotting analysis of HMC-1α155 tyrosine phosphorylation. […] (D) Western blotting analysis of BMMC tyrosine phosphorylation. Cell proliferation was assessed by WST-1 colorimetric assay. […] MW = molecular weight.

The subject of a further assay is FMA3 cells. The assay can be described thus: Mastocytoma cell line proliferation (WST-1), FMA3. The class given is cell-based, murine. As to conditions: Mus musculus, 48 h; 2 days; KIT juxtamembrane mutation. The procedure: as §3
In assay [4] the test system is EOL1 cells expressing the FIP1L1-PDGFRα chimeric protein. Nature of the assay: EOL1 cell proliferation. The class given is cell-based. As to conditions: Homo sapiens, EOL1, read-out: IC50, inhibition of proliferation in EOL1 cells. The procedure:
Figures 5C), a hypereosinophilic tumour cell line expressing the FIP1L1-PDGFRα chimeric protein, which is associated with chronic eosinophilic leukaemia.
Cell growth was assessed by WST-1 colorimetric assay. […] (D) Western blotting analysis of EOL1 tyrosine phosphorylation. MW = molecular weight markers.

VEGFR2, sequence (P35968 20-1356): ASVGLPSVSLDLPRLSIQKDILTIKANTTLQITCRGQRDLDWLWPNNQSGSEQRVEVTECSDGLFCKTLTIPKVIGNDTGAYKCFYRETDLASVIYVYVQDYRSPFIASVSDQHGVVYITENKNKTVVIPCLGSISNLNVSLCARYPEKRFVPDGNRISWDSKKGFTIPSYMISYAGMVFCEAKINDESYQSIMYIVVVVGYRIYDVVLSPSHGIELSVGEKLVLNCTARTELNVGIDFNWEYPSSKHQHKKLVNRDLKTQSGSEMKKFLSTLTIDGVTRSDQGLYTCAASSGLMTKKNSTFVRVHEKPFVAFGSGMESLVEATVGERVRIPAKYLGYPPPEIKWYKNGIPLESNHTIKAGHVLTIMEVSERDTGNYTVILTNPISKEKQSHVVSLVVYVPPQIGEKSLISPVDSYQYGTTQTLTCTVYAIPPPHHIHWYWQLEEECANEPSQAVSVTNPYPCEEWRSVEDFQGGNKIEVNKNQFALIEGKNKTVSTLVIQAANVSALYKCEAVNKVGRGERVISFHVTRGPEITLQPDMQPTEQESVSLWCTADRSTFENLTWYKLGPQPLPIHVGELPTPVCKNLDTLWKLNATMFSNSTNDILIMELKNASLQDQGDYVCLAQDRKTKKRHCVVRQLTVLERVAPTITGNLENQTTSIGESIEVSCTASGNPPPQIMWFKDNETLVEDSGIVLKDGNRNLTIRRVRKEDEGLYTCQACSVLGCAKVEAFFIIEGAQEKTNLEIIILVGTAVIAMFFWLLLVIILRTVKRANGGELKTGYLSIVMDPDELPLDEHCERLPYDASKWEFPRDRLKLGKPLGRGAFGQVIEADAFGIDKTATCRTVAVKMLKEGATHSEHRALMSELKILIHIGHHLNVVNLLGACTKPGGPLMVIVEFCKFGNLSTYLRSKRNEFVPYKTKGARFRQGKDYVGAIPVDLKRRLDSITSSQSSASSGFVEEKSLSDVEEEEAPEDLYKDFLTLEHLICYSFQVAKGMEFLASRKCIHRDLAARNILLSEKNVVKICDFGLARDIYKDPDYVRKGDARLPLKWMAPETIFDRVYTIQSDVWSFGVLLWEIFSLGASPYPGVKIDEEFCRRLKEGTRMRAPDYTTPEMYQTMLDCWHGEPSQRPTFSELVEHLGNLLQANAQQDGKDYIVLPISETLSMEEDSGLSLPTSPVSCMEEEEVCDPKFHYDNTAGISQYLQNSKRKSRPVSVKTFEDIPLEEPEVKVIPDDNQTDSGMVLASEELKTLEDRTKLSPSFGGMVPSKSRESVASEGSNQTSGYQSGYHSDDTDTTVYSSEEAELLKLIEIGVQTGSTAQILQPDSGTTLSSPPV
T2 sequence (P07948 2-491 isoform P07948-2 limits assumed): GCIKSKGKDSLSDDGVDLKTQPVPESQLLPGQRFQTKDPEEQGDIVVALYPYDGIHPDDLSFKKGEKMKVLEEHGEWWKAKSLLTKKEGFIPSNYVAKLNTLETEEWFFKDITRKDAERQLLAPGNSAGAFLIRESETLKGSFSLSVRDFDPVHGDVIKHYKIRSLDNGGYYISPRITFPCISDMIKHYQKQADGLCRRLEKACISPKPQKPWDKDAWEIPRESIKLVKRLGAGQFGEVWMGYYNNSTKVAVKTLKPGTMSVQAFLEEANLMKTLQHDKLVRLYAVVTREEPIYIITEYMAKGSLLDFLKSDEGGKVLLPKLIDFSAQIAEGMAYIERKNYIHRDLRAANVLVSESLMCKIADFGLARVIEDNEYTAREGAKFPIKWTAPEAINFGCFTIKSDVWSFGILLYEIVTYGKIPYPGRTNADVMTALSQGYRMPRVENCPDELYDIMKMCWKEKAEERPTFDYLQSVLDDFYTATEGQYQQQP
T5 sequence (P23458 whole entry, species assumed): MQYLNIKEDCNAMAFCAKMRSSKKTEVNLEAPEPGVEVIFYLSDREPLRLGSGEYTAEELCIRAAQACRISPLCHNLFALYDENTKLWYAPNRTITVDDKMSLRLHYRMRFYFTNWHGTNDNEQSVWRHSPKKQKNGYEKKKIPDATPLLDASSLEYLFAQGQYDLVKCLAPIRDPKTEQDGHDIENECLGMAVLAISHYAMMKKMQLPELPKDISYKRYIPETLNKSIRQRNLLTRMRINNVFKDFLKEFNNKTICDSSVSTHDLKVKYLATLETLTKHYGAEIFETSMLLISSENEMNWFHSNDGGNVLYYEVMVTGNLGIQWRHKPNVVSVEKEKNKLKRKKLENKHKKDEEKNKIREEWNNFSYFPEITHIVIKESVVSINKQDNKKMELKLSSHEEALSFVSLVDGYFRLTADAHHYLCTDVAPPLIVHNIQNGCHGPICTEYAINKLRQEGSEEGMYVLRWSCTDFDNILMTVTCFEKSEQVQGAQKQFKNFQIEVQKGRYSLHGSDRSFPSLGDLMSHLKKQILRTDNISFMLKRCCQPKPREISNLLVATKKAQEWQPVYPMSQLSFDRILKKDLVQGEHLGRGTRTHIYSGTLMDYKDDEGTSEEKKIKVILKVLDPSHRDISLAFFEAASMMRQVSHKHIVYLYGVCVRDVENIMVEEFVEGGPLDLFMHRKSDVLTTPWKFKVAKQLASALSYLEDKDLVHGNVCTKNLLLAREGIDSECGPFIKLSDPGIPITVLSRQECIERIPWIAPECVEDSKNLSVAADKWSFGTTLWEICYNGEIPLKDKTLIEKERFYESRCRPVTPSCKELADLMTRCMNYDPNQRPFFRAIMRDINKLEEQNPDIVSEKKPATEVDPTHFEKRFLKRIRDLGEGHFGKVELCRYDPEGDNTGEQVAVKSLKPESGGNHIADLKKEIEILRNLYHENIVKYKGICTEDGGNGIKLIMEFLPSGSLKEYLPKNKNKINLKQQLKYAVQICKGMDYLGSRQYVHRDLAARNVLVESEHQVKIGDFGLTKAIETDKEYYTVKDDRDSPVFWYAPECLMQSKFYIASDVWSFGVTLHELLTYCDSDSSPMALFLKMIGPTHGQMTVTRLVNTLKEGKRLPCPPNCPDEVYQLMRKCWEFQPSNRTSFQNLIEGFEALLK

The inhibition is the percentage by which the read-out fell short of the control. In the case of `CS(=O)(=O)O.CS(=O)(=O)O.Cc1ccc(NC(=O)c2ccc(CN3CCN(C)CC3)cc2)cc1Nc1nc(-c2cccnc2)cs1` [masitinib, 4-(4-methylpiperazin-1-ylmethyl)-N-[4-methyl-3-(4-pyridin-3ylthiazol-2-ylamino)phenyl]benzamide-mesylate methane sulfonic acid salt], the IC50 on VEGFR2 was greater than 10000 nM; at c-Ret [1] it was greater than 10000 nM; at Lyn B, 510 ± 130 nM; on Bmx, greater than 10000 nM; on c-Ret [2], 8000 ± 1200 nM; on Jak1, 8000 ± 1400 nM. The IC50 with HMC-1α155 cells is roughly 10 nM; in the assay on FMA3 cells, roughly 30 nM; in assay [4], 0.2 ± 0.1 nM. Also, testing at 0.1 µM in assay [3] (0.1 µM) gave an inhibition of 16%. In assay [3] (1.0 µM), testing at 1 µM gave an inhibition of 40%. In addition, the inhibition at 10 µM in assay [3] (10 µM) turned out to be 68%.
